Source: patent publication US20170275287A1, “NOVEL N2, N4, N7, 6-TETRASUBSTITUTED PTERIDINE-2,4,7-TRIAMINE AND 2, 4, 6, 7-TETRASUBSTITUTED PTERIDINE COMPOUNDS AND METHODS OF SYNTHESIS AND USE THEREOF” (Janus Biotherapeutics, Inc., priority 2014, published 2017)
Like-named read-outs stand apart in the source and are kept apart here.

Columns and labels:
TLR7 = biological target: T1, TLR7 (Mus musculus, UniProt P58681); assay: In vivo TLR7 knockdown (JB6011 agonist challenge); design: species or system mice; conditions: for ED50: translated for a 25 gram mouse
T1 construct: endogenous in cells
T1 sequence (P58681 27-1050): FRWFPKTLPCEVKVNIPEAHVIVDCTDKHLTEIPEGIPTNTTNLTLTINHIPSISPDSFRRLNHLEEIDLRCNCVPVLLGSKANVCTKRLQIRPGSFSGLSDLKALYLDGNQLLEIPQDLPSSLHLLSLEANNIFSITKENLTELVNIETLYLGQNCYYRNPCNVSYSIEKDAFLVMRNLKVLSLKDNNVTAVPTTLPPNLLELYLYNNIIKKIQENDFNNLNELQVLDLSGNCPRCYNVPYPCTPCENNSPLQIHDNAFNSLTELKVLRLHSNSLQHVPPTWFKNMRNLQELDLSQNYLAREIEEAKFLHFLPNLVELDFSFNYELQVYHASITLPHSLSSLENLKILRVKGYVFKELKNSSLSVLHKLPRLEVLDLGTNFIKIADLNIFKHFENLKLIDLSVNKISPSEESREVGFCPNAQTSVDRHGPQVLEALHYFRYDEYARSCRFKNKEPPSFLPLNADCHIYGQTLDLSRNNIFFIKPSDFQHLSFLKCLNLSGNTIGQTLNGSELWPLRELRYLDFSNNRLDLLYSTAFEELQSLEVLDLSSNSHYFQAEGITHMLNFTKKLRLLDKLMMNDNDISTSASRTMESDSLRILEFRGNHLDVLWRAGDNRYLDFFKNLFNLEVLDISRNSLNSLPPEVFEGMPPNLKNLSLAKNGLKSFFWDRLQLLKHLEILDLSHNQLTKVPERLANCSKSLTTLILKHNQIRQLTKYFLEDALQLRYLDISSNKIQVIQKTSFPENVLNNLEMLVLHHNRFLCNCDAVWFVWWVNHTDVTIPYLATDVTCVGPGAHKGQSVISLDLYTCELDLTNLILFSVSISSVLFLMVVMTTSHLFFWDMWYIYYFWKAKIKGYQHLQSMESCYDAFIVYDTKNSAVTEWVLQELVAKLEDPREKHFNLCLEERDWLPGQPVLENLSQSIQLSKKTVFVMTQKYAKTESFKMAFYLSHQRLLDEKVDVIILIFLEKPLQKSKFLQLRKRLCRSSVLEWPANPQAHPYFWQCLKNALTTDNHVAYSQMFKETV
Protocol: Mice were treated with test antagonist at varying doses at T=0 hr. Agonist treatment (CpG-DNA) dosed one hour later, T=1 hr for IP groups and two hours later, T=2 hr for PO groups. Necropsy performed 3 hours post agonist treatment, T=4 hr (IP groups) or T=5 hr (PO groups). Serum cytokines induced by the TLR agonist are measured by ELISA. Groups size per dose, n=3. The mean+/−SD of two independent ELISA's at differing serum dilutions is plotted.
JB6121 was also tested in vivo for TLR7 knockdown activity utilizing the TLR7 small molecule agonist JB6011 as the agonist challenge. […] This roughly translates to a 3.92 mg/kg IP dose and 11.44 mg/kg PO dose for a 25 gram mouse.

[1] = Toxicokinetics of the 7-day tox study; type: in vivo, rats; conditions: for increase in AUC0-24 h for a 10-fold increase in dose / increase in Cmax for a 10-fold increase in dose: 10 to 100 mg/kg; for AUC / half-life / Cmax / Tmax / clearance / Vd / bioavailability: rat; for half-life: read-out: T½ (converted); for Vd: read-out: Vdss; for bioavailability: read-out: calculated oral absolute bioavailability
Protocol: A 7-day non-GLP tox study was performed in rats. […] The following parameters and end points were evaluated in this study: clinical signs, body weights, body weight changes, food consumption, clinical pathology parameters (hematology, coagulation, clinical chemistry, and urinalysis), toxicokinetic parameters, gross necropsy findings, organ weights, and histopathologic examinations.
Clinical signs and body weight changes in the TK animals were generally similar to the main toxicology phase animals. Select toxicokinetic parameters from Days 1 and 7 are included below in Table 11.

LogD, pH 7.4 = type: physicochemical
[2] = all three oral doses, whole blood
[3] = female, whole blood, iv, 5 mg/kg, Day 1, 5 mg/kg I.V., Female
[4] = female, whole blood, po, 10 mg/kg, Day 1, 10 mg/kg oral, Female
[5] = female, whole blood, po, 10 mg/kg, Day 7, 10 mg/kg oral, Female
[6] = female, whole blood, po, 30 mg/kg, Day 1, 30 mg/kg oral, Female
[7] = female, whole blood, po, 30 mg/kg, Day 7, 30 mg/kg oral, Female
[8] = female, whole blood, po, 100 mg/kg, Day 1, 100 mg/kg oral, Female
[9] = female, whole blood, po, 100 mg/kg, Day 7, 100 mg/kg oral, Female
[10] = male, whole blood, iv, 5 mg/kg, Day 1, 5 mg/kg I.V., Male
[11] = male, whole blood, po, 10 mg/kg, Day 1, 10 mg/kg oral, Male
[12] = male, whole blood, po, 10 mg/kg, Day 7, 10 mg/kg oral, Male
[13] = male, whole blood, po, 30 mg/kg, Day 1, 30 mg/kg oral, Male
[14] = male, whole blood, po, 30 mg/kg, Day 7, 30 mg/kg oral, Male
[15] = male, whole blood, po, 100 mg/kg, Day 1, 100 mg/kg oral, Male
[16] = male, whole blood, po, 100 mg/kg, Day 7, 100 mg/kg oral, Male
[17] = whole blood, iv, Day 1, 5 mg/kg I.V., Female
[18] = whole blood, iv, Day 1, 5 mg/kg I.V., Male

With `CN1CCN(c2nc(NCCN3CCOCC3)c3nc(Cl)c(NCCN4CCOCC4)nc3n2)CC1` [JB6121, 6-chloro-2-(4-methylpiperazin-1-yl)-N^4,N^7-bis(2-morpholinoethyl)pteridine-4,7-diamine] the ED50 (TLR7; 4 h, IP, read-out: ID50, TLR7 knockdown, IP dose) was ~3.92 mg/kg, the ED50 (TLR7; 5 h, PO, read-out: ID50, TLR7 knockdown, PO dose) was ~11.4 mg/kg and the “ID50, TLR7 knockdown, IP injection” value (TLR7; mice, IP, JB6011 challenge) was 98.34 μg injection dose. The “ID50, TLR7 knockdown, PO gavage” value (TLR7; mice, PO, JB6011 challenge) was 286 μg delivery dose, the 7-day accumulation ([1]; 7 day toxicokinetics versus 24 h PK whole blood exposures) was “approximately 2 fold” and the “F (0-x)” value ([1]; Day 1, 10 mg/kg oral, Female) was 8.10%. The “F (0-x)” value ([1]; Day 1, 10 mg/kg oral, Male) was 13.3%, the “F (0-x)” value ([1]; Day 1, 30 mg/kg oral, Female) was 37.2% and the “F (0-x)” value ([1]; Day 1, 30 mg/kg oral, Male) was 28.0%. The “F (0-x)” value ([1]; Day 1, 100 mg/kg oral, Female) was 91.0%, the “F (0-x)” value ([1]; Day 1, 100 mg/kg oral, Male) was 78.5% and the “increase in AUC0-24 h for a 10-fold increase in dose” value ([1]; Day 1, female) was 113 fold. The “increase in Cmax for a 10-fold increase in dose” value ([1]; Day 1, female) was 43 fold, the “increase in AUC0-24 h for a 10-fold increase in dose” value ([1]; Day 1, male) was 59 fold and the “increase in Cmax for a 10-fold increase in dose” value ([1]; Day 1, male) was 32 fold. The “increase in AUC0-24 h for a 10-fold increase in dose” value ([1]; Day 7, female) was 38 fold, the “increase in Cmax for a 10-fold increase in dose” value ([1]; Day 7, female) was 20 fold and the “increase in AUC0-24 h for a 10-fold increase in dose” value ([1]; Day 7, male) was 48 fold. The “increase in Cmax for a 10-fold increase in dose” value ([1]; Day 7, male) was 24 fold, the “average D7/D1 AUC0-24 h ratio” value [1, 2] was 2.79 and the “average D7/D1 Cmax ratio” value [1, 2] was 1.71. For the same molecule, the AUC [1, 3] was 2210 ng·h/mL, the half-life [1, 3] was 10.8 h and the AUC [1, 4] was 357 ng·h/mL. The Cmax [1, 4] was 92 ng/mL, the Tmax [1, 4] was 3 h and the half-life [1, 4] was 5.43 h. The AUC [1, 5] was 2120 ng·h/mL, the Cmax [1, 5] was 260 ng/mL and the Tmax [1, 5] was 3 h. The half-life [1, 5] was 18.2 h, the AUC [1, 6] was 4920 ng·h/mL and the Cmax [1, 6] was 643 ng/mL. It also gave a Tmax [1, 6] of 3 h, a half-life [1, 6] of 8.8 h and an AUC [1, 7] of 8890 ng·h/mL. It also gave a Cmax [1, 7] of 639 ng/mL, a Tmax [1, 7] of 6 h and a half-life [1, 7] of 14.3 h. It also gave an AUC [1, 8] of 40300 ng·h/mL, a Cmax [1, 8] of 3980 ng/mL and a Tmax [1, 8] of 3 h. The half-life [1, 8] was 9.39 h, the AUC [1, 9] was 80200 ng·h/mL and the Cmax [1, 9] was 5310 ng/mL. It also gave a Tmax [1, 9] of 3 h, a half-life [1, 9] of 14.1 h and an AUC [1, 10] of 2790 ng·h/mL. For the same molecule, the half-life [1, 10] was 10.2 h, the AUC [1, 11] was 743 ng·h/mL and the Cmax [1, 11] was 122 ng/mL. For the same molecule, the Tmax [1, 11] was 3 h, the half-life [1, 11] was 14.1 h and the AUC [1, 12] was 1910 ng·h/mL. For the same molecule, the Cmax [1, 12] was 181 ng/mL, the Tmax [1, 12] was 3 h and the half-life [1, 12] was 19.9 h. For the same molecule, the AUC [1, 13] was 4700 ng·h/mL, the Cmax [1, 13] was 582 ng/mL and the Tmax [1, 13] was 3 h. The half-life [1, 13] was 9.39 h, the AUC [1, 14] was 11100 ng·h/mL and the Cmax [1, 14] was 805 ng/mL. For the same molecule, the Tmax [1, 14] was 6 h, the half-life [1, 14] was 18.4 h and the AUC [1, 15] was 43800 ng·h/mL. The Cmax [1, 15] was 3950 ng/mL, the Tmax [1, 15] was 3 h and the half-life [1, 15] was 11.9 h. It also gave an AUC [1, 16] of 91200 ng·h/mL, a Cmax [1, 16] of 6280 ng/mL and a Tmax [1, 16] of 3 h. For the same molecule, the half-life [1, 16] was 40.4 h, the “slope of Cmax versus dose” value ([1]; pooled 7-day exposure data, 0 to 30 mg/kg) was 28.24 ng/mL/mg/kg and the clearance [1, 17] was 31.5 mL/min/kg. The Vd [1, 17] was 23.1 L/kg, the clearance [1, 18] was 24.7 mL/min/kg and the Vd [1, 18] was 18.1 L/kg. It also gave a bioavailability ([1]; whole blood, po, Day 1, 10 mg/kg) of 13.3%, a bioavailability ([1]; whole blood, po, Day 1, 30 mg/kg) of 28% and a bioavailability ([1]; whole blood, po, Day 1, 100 mg/kg) of 78.5%. For the same molecule, the logD (LogD, pH 7.4) was 0.995.
